Experimental data: patent US20080051429A1, “USE OF 4-AMINO-PIPERIDINES FOR TREATING SLEEP DISORDERS” (priority 2006, published 2008)

Assays:
D2 = D2 (Homo sapiens, UniProt P14416); experiment: R-SAT broad profiling; type: cell-based; design: expressed in transfected cells; host or cells: NIH3T3; details: read-out: pEC50/pIC50 (converted)
Procedure: The functional receptor assay, Receptor Selection and Amplification Technology (R-SAT), was used (with minor modifications from that previously described U.S. Pat. No. 5,707,798) to screen compounds for efficacy at the 5-HT2A receptor. Briefly, NIH3T3 cells were grown in 96 well tissue culture plates to 70-80% confluence. Cells were transfected for 12-16 hours with plasmid DNAs using superfect (Qiagen Inc.) as per manufacture's protocols. R-SAT's were generally performed with 50 ng/well of receptor and 20 ng/well of Beta-galactosidase plasmid DNA. All receptor and G-protein constructs used were in the pSI mammalian expression vector (Promega Inc) as described in U.S. Pat. No. 5,707,798. The 5HT2A receptor gene was amplified by nested PCR from brain cDNA using the oligodeoxynucleotides based on the published sequence (see Saltzman et. al. Biochem. Biophys. Res. Comm. 181:1469-78 (1991)). Large-scale transfections, cells were transfected for 12-16 hours, then trypsinized and frozen in DMSO. […] Media was then removed from the plates and marker gene activity was measured by the addition of the beta-galactosidase substrate ONPG (in PBS with 5% NP-40). The resulting colorimetric reaction was measured in a spectrophotometric plate reader (Titertek Inc.)at […]. All data were analyzed using the computer program XLFit (IDBSm). […]

endothelinB = biological target: T1, endothelinB (Homo sapiens, UniProt P24530); experiment: R-SAT broad profiling; type: cell-based; details: agonist; read-out: pEC50/pIC50 (converted)
T1 construct: expressed in transfected cells; host or cells: NIH3T3
T1 sequence (P24530 27-442): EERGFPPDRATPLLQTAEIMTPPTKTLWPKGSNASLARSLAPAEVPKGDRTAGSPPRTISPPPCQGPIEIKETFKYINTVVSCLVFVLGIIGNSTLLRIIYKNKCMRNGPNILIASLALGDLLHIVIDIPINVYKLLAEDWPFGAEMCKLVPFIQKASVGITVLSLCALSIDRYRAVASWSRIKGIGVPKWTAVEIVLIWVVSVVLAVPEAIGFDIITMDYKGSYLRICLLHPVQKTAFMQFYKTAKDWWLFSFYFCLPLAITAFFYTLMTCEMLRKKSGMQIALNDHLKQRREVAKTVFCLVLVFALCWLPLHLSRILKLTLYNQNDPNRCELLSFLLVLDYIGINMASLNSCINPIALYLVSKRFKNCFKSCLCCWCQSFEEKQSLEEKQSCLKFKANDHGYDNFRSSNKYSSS
Procedure: (§1) The functional receptor assay, Receptor Selection and Amplification Technology (R-SAT), was used (with minor modifications from that previously described U.S. Pat. No. 5,707,798) to screen compounds for efficacy at the 5-HT2A receptor. Briefly, NIH3T3 cells were grown in 96 well tissue culture plates to 70-80% confluence. Cells were transfected for 12-16 hours with plasmid DNAs using superfect (Qiagen Inc.) as per manufacture's protocols. R-SAT's were generally performed with 50 ng/well of receptor and 20 ng/well of Beta-galactosidase plasmid DNA. All receptor and G-protein constructs used were in the pSI mammalian expression vector (Promega Inc) as described in U.S. Pat. No. 5,707,798. The 5HT2A receptor gene was amplified by nested PCR from brain cDNA using the oligodeoxynucleotides based on the published sequence (see Saltzman et. al. Biochem. Biophys. Res. Comm. 181:1469-78 (1991)). Large-scale transfections, cells were transfected for 12-16 hours, then trypsinized and frozen in DMSO. Frozen cells were later thawed, plated at 10,000-40,000 cells per well of a 96 well plate that contained drug. With both methods, cells were then grown in a humidified atmosphere with 5% ambient CO2 for five days. Media was then removed from the plates and marker gene activity was measured by the addition of the beta-galactosidase substrate ONPG (in PBS with 5% NP-40). The resulting colorimetric reaction was measured in a spectrophotometric plate reader (Titertek Inc.)at […]. All data were analyzed using the computer program XLFit (IDBSm). Efficacy is the percent maximal repression compared to repression by a control compound (ritanserin in the case of 5HT2A). pIC50 is the negative of the log(IC50), where IC50 is the calculated concentration in Molar that produces 50% maximal repression.
(§2) The R-SAT assay (described above in example 136) was used to investigate the selectivity of 2-(4-Methoxyphenyl)-N-(4-methylbenzyl)-N-(1-methylpiperidin-4-yl)acetamide hydrochloride.

Histamine 3 = biological target: T2, Histamine 3 (Homo sapiens, UniProt Q9Y5N1); experiment: R-SAT broad profiling; type: cell-based; details: read-out: pEC50/pIC50 (converted)
T2 construct: expressed in transfected cells; host or cells: NIH3T3
T2 sequence (Q9Y5N1 whole entry): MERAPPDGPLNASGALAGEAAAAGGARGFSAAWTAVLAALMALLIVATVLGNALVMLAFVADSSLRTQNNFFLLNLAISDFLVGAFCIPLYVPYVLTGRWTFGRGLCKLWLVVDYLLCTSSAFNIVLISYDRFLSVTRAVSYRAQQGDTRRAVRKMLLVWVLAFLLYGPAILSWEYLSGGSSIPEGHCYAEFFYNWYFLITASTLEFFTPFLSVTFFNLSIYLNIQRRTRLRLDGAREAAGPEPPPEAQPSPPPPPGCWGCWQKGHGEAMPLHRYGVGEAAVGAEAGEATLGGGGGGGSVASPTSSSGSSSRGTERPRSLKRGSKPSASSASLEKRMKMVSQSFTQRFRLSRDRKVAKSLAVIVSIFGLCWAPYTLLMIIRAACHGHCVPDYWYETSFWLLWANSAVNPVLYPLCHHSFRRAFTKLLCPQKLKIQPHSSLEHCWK
Procedure: as §1, §2

NK-1 = biological target: T3, NK-1 (Homo sapiens, UniProt P25103); experiment: R-SAT broad profiling; type: cell-based; details: agonist; read-out: pEC50/pIC50 (converted)
T3 construct: expressed in transfected cells; host or cells: NIH3T3
T3 sequence (P25103 whole entry): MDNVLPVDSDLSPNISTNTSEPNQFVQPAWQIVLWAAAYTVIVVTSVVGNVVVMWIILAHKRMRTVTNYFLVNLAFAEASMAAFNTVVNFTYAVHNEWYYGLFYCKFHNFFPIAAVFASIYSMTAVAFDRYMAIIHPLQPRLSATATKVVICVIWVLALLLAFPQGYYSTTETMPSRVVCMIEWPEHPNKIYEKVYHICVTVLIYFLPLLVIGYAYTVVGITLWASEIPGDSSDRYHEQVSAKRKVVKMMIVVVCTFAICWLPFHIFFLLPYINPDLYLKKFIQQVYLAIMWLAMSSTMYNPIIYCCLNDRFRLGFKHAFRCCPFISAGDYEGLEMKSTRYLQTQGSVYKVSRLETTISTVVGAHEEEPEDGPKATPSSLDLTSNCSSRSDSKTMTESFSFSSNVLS
Procedure: as §1, §2

alpha-1A(a/c) = biological target: T4, alpha-1A(a/c) (Homo sapiens, UniProt P35348); experiment: R-SAT broad profiling; type: cell-based; details: read-out: pEC50/pIC50 (converted)
T4 construct: expressed in transfected cells; host or cells: NIH3T3
T4 sequence (P35348 whole entry): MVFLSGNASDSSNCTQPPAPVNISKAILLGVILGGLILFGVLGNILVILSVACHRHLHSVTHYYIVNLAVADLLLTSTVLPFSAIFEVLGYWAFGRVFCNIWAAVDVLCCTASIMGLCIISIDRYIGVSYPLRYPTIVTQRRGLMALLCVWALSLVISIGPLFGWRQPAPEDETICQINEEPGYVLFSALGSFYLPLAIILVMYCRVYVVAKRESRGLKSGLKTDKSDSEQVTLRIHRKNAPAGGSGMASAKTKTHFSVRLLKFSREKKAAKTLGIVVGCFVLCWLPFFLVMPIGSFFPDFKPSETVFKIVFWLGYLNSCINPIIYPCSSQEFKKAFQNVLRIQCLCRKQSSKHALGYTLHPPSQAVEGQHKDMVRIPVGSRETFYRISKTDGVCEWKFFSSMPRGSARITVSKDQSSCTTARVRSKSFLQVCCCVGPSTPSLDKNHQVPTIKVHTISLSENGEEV
Procedure: as §1, §2

CCK-A = biological target: T5, CCK-A (Homo sapiens, UniProt P32238); experiment: R-SAT broad profiling; type: cell-based; details: agonist; read-out: pEC50/pIC50 (converted)
T5 construct: expressed in transfected cells; host or cells: NIH3T3
T5 sequence (P32238 whole entry): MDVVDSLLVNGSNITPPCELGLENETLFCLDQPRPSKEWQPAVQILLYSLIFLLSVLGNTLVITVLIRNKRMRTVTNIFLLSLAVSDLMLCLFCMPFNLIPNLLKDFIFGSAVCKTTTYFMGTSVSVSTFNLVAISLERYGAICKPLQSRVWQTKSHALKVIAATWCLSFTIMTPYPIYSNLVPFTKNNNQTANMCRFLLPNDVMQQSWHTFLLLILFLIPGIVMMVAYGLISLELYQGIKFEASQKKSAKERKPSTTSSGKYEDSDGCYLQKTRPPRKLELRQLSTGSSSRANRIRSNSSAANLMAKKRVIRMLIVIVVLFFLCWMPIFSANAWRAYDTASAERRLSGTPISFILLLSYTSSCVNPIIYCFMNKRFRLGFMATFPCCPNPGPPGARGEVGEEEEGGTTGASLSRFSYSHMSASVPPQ
Procedure: as §1, §2

D1 = biological target: T6, D1 (Homo sapiens, UniProt P21728); experiment: R-SAT broad profiling; type: cell-based; details: read-out: pEC50/pIC50 (converted)
T6 construct: expressed in transfected cells; host or cells: NIH3T3
T6 sequence (P21728 whole entry): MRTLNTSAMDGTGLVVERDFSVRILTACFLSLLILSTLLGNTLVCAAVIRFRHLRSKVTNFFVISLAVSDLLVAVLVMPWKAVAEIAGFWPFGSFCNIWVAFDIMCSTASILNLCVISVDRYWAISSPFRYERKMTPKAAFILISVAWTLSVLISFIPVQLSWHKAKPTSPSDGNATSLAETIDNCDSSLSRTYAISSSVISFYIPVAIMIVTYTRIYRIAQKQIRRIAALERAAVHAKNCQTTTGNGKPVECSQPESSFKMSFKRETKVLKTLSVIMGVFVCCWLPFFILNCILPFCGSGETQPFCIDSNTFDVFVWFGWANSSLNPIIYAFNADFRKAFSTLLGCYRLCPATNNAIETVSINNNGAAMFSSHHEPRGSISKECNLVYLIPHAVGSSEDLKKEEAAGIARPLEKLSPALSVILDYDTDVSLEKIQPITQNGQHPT
Procedure: as §1, §2

5-HT6 = biological target: T7, 5-HT6 (Homo sapiens, UniProt P50406); experiment: R-SAT broad profiling; type: cell-based; details: read-out: pEC50/pIC50 (converted)
T7 construct: expressed in transfected cells
T7 sequence (P50406 whole entry, species assumed): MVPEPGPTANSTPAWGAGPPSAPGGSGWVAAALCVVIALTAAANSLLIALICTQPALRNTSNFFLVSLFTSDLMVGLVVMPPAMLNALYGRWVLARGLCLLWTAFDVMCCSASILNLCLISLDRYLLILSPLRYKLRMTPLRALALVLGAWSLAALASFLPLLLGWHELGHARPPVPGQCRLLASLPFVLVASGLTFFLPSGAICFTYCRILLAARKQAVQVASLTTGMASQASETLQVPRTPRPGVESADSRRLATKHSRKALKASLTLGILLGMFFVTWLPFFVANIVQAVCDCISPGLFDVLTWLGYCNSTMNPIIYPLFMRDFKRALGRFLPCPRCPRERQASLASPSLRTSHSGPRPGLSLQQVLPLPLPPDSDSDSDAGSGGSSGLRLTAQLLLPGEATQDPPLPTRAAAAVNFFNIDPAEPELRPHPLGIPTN
Procedure: as §1, §2

m4 = biological target: T8, m4 (Homo sapiens, UniProt P08173); experiment: R-SAT broad profiling; type: cell-based; details: read-out: pEC50/pIC50 (converted)
T8 construct: expressed in transfected cells; host or cells: NIH3T3
T8 sequence (P08173 1-479): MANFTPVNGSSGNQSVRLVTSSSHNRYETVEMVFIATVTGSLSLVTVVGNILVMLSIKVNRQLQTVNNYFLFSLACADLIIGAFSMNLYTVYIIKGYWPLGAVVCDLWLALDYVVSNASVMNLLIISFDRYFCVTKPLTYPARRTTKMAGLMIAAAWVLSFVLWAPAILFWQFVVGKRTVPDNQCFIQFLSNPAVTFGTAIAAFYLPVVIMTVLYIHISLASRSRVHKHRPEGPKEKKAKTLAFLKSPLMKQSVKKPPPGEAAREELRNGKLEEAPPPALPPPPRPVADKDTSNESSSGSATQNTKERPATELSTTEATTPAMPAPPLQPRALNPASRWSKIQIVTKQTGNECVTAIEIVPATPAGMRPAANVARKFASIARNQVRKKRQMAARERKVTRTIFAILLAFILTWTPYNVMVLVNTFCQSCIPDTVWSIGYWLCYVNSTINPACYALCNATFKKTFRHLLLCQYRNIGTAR
Procedure: as §1, §2

Vasopressin1A = biological target: T9, Vasopressin1A (Homo sapiens, UniProt P37288); experiment: R-SAT broad profiling; type: cell-based; details: agonist; read-out: pEC50/pIC50 (converted)
T9 construct: expressed in transfected cells; host or cells: NIH3T3
T9 sequence (P37288 whole entry): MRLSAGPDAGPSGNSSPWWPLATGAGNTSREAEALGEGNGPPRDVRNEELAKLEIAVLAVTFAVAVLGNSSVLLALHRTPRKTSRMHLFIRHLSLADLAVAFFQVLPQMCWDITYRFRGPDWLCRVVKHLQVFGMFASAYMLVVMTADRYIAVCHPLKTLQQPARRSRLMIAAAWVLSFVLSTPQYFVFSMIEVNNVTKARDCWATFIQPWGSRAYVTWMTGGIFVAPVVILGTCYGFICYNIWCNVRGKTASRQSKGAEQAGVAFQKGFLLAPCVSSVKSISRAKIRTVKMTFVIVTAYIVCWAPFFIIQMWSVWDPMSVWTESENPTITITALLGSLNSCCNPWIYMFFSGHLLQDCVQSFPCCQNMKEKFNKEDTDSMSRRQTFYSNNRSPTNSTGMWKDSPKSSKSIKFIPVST
Procedure: as §1, §2

5-HT4 = biological target: T10, 5-HT4 (Homo sapiens, UniProt Q13639); experiment: R-SAT broad profiling; type: cell-based; details: read-out: pEC50/pIC50 (converted)
T10 construct: expressed in transfected cells
T10 sequence (Q13639 1-387 isoform Q13639-2, species assumed): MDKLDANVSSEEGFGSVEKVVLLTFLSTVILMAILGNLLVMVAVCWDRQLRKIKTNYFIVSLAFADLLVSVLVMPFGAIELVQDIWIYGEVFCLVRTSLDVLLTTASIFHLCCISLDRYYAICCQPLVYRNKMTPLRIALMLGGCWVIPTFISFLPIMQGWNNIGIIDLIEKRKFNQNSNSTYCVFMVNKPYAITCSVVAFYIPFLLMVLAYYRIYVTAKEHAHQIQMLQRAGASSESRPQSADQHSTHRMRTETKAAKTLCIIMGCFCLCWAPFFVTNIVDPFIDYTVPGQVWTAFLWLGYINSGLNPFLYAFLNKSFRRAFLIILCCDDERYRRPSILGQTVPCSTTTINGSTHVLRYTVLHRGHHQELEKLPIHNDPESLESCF
Procedure: as §1, §2

D5 = biological target: T11, D5 (Homo sapiens, UniProt P21918); experiment: R-SAT broad profiling; type: cell-based; details: read-out: pEC50/pIC50 (converted)
T11 construct: expressed in transfected cells; host or cells: NIH3T3
T11 sequence (P21918 whole entry): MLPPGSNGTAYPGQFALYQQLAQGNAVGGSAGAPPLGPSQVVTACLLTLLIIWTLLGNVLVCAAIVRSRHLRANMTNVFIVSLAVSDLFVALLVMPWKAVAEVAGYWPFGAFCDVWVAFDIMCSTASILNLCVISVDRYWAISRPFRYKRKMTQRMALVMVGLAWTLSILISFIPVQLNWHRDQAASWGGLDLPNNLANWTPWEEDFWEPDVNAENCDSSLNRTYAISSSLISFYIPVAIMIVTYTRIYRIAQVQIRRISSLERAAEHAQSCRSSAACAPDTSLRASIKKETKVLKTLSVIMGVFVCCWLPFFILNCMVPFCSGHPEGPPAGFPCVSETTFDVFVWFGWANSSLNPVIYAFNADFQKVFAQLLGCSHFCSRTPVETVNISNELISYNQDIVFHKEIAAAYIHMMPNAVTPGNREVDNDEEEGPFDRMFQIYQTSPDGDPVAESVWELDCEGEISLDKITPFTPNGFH
Procedure: as §1, §2

healthy volunteers [1] = experiment: Clinical safety evaluation; type: in vivo, human
Procedure: Safety: 3-positional vital signs, ECGs, body temperature, and respiratory rates as well as blood chemistries, hematology, and urinalysis served as safety measures. Safety measures were assessed at screening, baseline (Day −1), Day 1, Day 2, Day 13, and Day 14. Any observed or reported adverse events were recorded. Blood samples were taken on Day −1 (baseline) and on Day 14 (steady state). Two weeks after the termination of treatment administration (Day 28), an end-of-study visit was conducted, and included a clinical safety evaluation.

healthy volunteers [2] = experiment: Continuous Performance Test (CPT); type: in vivo, human
Procedure: Performance Assessment: A Continuous Performance Test (CPT; Rosvold M E, Mirsky A F, Sarason I, Bransome E R Jr., Beck L H (1956) A continuous performance test for brain damage. J Consult Psychol 20:343-350, which is incorporated herein by reference in its entirety), was used to evaluate attention and vigilance. The test was administered both during the evening and the morning following the baseline PSG on Day 1 and the evaluation PSG on Day 13. Participants were rapidly presented a numerical train with a target number as point of reference. Participants pushed a button rapidly when the target number appeared in the number list. The procedure lasted three minutes. The number of targets detected and the number of false alarms were assessed.

Chain of D2 (P14416 whole entry): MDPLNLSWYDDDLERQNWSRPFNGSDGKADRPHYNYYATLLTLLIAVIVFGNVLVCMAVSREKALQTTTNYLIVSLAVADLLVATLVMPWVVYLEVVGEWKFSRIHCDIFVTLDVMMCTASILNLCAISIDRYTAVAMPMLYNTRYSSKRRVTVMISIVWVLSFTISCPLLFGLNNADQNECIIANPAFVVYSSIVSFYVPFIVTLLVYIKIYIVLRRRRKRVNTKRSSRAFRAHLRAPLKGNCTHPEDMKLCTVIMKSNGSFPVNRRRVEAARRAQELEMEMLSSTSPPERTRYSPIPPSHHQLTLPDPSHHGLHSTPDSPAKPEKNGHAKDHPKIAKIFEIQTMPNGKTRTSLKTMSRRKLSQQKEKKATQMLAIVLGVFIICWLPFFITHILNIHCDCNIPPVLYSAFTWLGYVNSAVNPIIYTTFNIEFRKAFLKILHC

COc1ccc(CC(=O)N(Cc2ccc(C)cc2)C2CCN(C)CC2)cc1 [Example 50ELH27, 2-(4-Methoxyphenyl)-N-(4-methylbenzyl)-N-(1-methylpiperidin-4-yl)acetamide]
> 3.16 µM: EC50 (D2; agonist) | IC50 (D2; antagonist) | EC50 (endothelinB) | EC50 (Histamine 3; agonist) | IC50 (Histamine 3; antagonist) | EC50 (NK-1) | EC50 (alpha-1A(a/c); agonist) | IC50 (alpha-1A(a/c); antagonist) | EC50 (CCK-A) | EC50 (D1; agonist) | IC50 (D1; antagonist) | EC50 (5-HT6; agonist) | EC50 (m4; agonist) | IC50 (m4; antagonist) | EC50 (Vasopressin1A) | EC50 (5-HT4; agonist) | IC50 (5-HT4; inverse agonist) | EC50 (D5; agonist) | IC50 (D5; antagonist)
0.158 µM: IC50 (5-HT6; Inv. Agonist)

CC(C)COc1ccc(CNC(=O)N(Cc2ccc(F)cc2)C2CCN(C)CC2)cc1 [N-(1-methylpiperidin-4-yl)-N-(4-fluorophenylmethyl)-N′-(4-(2-methylpropyloxy)phenylmethyl)carbamide]
safe and well tolerated: safety and tolerability (healthy volunteers [1]; 1 to 20 mg once daily, 14 days)
mild to moderate: nature of adverse events (healthy volunteers [1]; comparable across placebo and treated groups)
absence of effect: CPT detected targets and false alarm change scores (healthy volunteers [2]; any dose, evening and morning (p>0.10))
no serious adverse events: serious adverse events (healthy volunteers [1]; 1 to 20 mg once daily, 14 days)
did not impair: daytime functioning (healthy volunteers [2]; in words)
